The source made the active and inactive calls.
Tests used:
[1] = molecular target: SWI/SNF-related matrix-associated actin-dependent regulator of chromatin subfamily A member 2 (Homo sapiens, UniProt P51531); test: Luminescence-based cell-based high throughput dose response assay to identify activators of the function of SWI/SNF related, matrix associated, actin dependent regulator of chromatin, subfamily a, member 2 (SMARCA2, BRM).; type: functional
[2] = Counterscreen for activators of the function of SWI/SNF related, matrix associated, actin dependent regulator of chromatin, subfamily a, member 2 (SMARCA2, BRM): Luminescence-based cell-based high throughput dose response assay to identify non-selective compounds using the VP16 reporter assay.; type: functional
[3] = HEK293 cell viability, dose response, counter-screen for EBV LMP1 inhibitor project, dry powder, set 2 (AID 624374); type: functional
[4] = tested on: Streptococcus sp. 'group A'; test: growth inhibition of control SK(-) GAS strain, dose response, counter-screen for streptokinase expression inhibitor project, luminescence, kanamycin, BacTiterGlo, confirmation (AID 1900); type: functional, organism-based
[5] = Vero cell cytotoxicity, dose response, cytotoxicity control for Vif-APOBEC3G degradation inhibitor project, Vero cells (AID 1117358); type: functional; conditions: Human immunodeficiency virus 1, Vero
Streptococcus = test: Group A Streptococcus viability loss, dose response, counter-screen for streptokinase expression inhibitor project, luminescence, BacTiterGlo (AID 1915); type: functional, organism-based;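 note: potency for reduction of bacterial viability or growth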
Streptokinase A = molecular target: T1, Streptokinase A (Streptococcus pyogenes serotype M1, UniProt P10520); test: S. pyogenes streptokinase expression inhibitors, potency, dose response, plasminogen activation absorbance, OD405 (AID 1914); type: functional, Streptococcus pyogenes M1 GAS;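 note: secreted streptokinase activity via plasminogen activation per viability signal from cell pellet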
T1 sequence (P10520 whole entry): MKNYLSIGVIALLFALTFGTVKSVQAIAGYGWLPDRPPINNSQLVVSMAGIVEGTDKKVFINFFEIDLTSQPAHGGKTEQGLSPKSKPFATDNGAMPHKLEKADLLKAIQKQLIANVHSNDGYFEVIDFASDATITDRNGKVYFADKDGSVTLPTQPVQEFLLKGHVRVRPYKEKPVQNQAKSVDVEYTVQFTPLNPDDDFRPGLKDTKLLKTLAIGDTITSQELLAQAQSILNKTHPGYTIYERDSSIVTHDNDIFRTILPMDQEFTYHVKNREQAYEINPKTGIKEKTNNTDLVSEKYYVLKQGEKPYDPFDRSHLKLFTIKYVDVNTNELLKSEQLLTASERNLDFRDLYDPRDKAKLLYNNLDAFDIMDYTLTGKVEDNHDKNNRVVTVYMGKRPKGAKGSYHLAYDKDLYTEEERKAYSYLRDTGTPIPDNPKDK

[6] = Glucagon-like peptide 1 release potency, NCI-H716 cell line, dose-response, half-maximal inhibitory concentration (AID 1117344); type: functional, cell-based
[7] = SNU-C1 cell viability reduction, dose response, CellTiter-Glo luminescence (AID 1117323); type: functional, cell-based
[8] = cytotoxicity toward Colo320 cells – cell-based, CellTiter-Glo luminescence, IC50, dose response (AID 1117334); type: functional; conditions: COLO 320
[9] = HCT116 cell viability decrease, GSK3B pretreatment – CellTiter-Glo, IC50, dose response (AID 1117339); type: functional; conditions: HCT-116
[10] = HeLa 4N DNA content increase, dose response, cell-based, IC50 (AID 1117351); type: functional
[11] = HeLa 2N DNA content increase, dose response, cell-based, IC50 (AID 1117349); type: functional
[12] = molecular target: Photoreceptor-specific nuclear receptor (Homo sapiens, UniProt Q9Y5X4); type: functional, cell-based;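 note: CHO-S cells with Gal4-NCOR and VP16-NR2E3 two-hybrid luciferase reporter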
Photoreceptor-specific nuclear receptor, sequence (Q9Y5X4 whole entry, the tested form may be a part): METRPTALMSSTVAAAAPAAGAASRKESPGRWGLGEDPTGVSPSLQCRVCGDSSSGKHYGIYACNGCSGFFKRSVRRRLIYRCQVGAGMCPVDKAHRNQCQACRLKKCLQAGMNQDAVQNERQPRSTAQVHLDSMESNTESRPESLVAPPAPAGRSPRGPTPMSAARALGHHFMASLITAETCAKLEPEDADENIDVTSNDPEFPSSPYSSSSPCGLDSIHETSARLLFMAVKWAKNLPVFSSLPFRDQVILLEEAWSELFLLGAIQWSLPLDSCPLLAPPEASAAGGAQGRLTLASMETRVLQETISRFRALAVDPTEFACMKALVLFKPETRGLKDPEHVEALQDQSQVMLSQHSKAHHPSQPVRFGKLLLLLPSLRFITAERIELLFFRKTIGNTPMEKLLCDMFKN

[13] = CellTiter-Glo luminescent dose response of DLD-1 viability loss (AID 1117352); type: functional
[14] = half-maximal inhibitory concentration for glucagon-like peptide-1 release, STC-1 cell line, dose-response (AID 1117345); type: functional, cell-based
[15] = cytotoxicity toward HCT116 cells – cell-based, CellTiter-Glo luminescence, IC50, dose response (AID 1117332); type: functional; conditions: HCT-116
[16] = RKO cell viability reduction, dose response, CellTiter-Glo luminescence (AID 1117322); type: functional
[17] = cytotoxicity toward HT-29 cells – cell-based, CellTiter-Glo luminescence, IC50, dose response (AID 1117330); type: functional
[18] = molecular target: Oxysterols receptor LXR-beta (Homo sapiens, UniProt P55055); type: functional, cell-based;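 note: Cell-based luminescence dose-response assay of agonist activity at LXR, run as a confirmatory counterscreen to a daf-12 agonist screen; HEK293 cells with Gal4-LXR fusion and GAL4-driven luciferase reporter; agonist potency from rising luciferase signal of a Gal4-LXR reporter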
Oxysterols receptor LXR-beta, sequence (P55055 whole entry, the tested form may be a part): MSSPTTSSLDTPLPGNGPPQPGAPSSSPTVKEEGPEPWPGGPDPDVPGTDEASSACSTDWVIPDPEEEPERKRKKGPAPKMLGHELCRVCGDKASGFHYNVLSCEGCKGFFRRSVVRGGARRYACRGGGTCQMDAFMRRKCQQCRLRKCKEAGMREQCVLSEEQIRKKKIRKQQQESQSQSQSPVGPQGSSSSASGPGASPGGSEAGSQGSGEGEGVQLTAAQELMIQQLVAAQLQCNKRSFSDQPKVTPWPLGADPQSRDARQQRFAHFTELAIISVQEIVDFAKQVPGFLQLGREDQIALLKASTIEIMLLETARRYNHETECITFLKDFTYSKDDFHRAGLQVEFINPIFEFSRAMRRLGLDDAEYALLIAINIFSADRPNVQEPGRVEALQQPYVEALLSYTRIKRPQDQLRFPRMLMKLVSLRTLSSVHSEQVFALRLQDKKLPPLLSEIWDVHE

[19] = Concentration-dependent survival of SW480 colon cancer line, luminescence detection with CellTiter-Glo, half-maximal inhibitory concentration (AID 1117338); type: functional
[20] = P. falciparum Dd2 growth inhibitors, dose response, SYBR Green, cherry-picked samples (AID 1159567); type: functional, cell-based
[21] = P. falciparum Dd2 growth inhibitors, dose response, SYBR Green, dry powder samples (AID 1159566); type: functional, cell-based;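 note: potency for growth inhibition with lower SYBR green DNA signal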
[22] = P. falciparum 3D7-ScDHODH growth inhibitors, dose response, SYBR Green, dry powder samples (AID 1159570); type: functional, cell-based;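 note: parasite growth measured after 72 hours of compound exposure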
[23] = P. falciparum ATP4 D1247Y mutant growth inhibitors, dose response, NITD609-resistant line, SYBR Green, dry powder (AID 1159571); type: functional, cell-based;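 note: parasites synchronized at ring stage by sorbitol before testing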
[24] = HEK293T cytotoxicity, dose response, cytotoxicity control for miR-122 modulator project, cell-based, inhibitor set, cherry-pick, set 2 (AID 720697); type: functional

SWI/SNF-related matrix-associated actin-dependent regulator of chromatin subfamily A member 2, sequence (P51531 whole entry): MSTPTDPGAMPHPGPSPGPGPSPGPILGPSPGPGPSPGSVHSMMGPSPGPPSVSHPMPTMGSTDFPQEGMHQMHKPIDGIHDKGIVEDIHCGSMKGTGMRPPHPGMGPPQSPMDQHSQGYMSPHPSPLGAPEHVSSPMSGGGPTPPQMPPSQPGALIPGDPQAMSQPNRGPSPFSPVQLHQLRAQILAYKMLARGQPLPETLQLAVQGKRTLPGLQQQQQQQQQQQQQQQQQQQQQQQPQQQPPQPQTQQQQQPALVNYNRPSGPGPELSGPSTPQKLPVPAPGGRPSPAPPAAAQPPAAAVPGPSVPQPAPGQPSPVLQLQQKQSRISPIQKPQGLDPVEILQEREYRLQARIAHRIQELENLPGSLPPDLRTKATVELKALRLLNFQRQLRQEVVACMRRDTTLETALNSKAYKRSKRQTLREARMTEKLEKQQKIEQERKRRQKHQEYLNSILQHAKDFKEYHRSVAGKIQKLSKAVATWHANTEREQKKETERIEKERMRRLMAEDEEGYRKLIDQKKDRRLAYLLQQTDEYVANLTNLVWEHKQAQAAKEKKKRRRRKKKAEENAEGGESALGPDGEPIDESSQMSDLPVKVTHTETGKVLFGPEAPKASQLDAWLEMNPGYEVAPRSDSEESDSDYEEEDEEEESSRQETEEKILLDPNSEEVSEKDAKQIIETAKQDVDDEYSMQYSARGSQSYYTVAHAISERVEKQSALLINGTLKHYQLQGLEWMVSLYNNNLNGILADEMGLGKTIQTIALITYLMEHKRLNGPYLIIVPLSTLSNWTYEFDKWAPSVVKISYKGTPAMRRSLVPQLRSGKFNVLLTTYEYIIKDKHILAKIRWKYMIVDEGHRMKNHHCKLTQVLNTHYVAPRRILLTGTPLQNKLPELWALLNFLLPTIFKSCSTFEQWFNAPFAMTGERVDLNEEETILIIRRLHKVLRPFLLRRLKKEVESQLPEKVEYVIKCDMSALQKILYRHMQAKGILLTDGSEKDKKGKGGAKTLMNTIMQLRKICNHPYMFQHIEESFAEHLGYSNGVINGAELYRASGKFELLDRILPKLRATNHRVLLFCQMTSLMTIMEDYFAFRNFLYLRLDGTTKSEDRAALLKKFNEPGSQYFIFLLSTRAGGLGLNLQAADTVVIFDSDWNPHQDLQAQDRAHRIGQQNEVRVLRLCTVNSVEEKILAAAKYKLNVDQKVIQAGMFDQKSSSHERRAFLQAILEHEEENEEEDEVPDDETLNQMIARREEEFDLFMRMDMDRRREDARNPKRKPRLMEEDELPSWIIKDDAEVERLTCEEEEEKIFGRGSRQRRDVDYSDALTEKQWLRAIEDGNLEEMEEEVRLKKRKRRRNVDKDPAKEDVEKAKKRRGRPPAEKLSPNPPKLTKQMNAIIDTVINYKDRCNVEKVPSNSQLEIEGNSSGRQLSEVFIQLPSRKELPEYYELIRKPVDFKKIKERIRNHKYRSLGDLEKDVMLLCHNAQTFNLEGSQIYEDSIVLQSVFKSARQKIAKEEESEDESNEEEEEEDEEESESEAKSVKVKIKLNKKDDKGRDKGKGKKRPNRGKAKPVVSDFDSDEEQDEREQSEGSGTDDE

With `O=C(CN1CCCCC1)Nc1c2c(nc3ccccc13)N(c1ccccc1)CC2` the EC50 [1] was > 91.2 µM (inactive) and the EC50 [2] was > 91.2 µM (inactive).

Work on `C[C@H](CO)N1C[C@H](C)[C@H](CN(C)Cc2ccc(Oc3ccccc3)cc2)Oc2ccc(NC(=O)CCCN(C)C)cc2C1=O` yielded an AbsAC35 [3] of 286.99 µM.

In the case of `O=c1c2c(nc(NCCO)n1CC1CCCCC1)-c1ccccc1CC21CCCC1`, the EC50 [4] is reported as 2.67 µM (active), the CC50 [5] is reported as > 40 µM (active) and the EC50 (Streptococcus) is reported as 19.3 µM (inconclusive). For the same molecule, the EC50 (Streptokinase A) was 3.48 µM (active).

In the case of `CCC(C)(C)C(=O)O[C@H]1C[C@@H](C)C=C2C=C[C@H](C)[C@H](CC[C@@H]3C[C@@H](O)CC(=O)O3)[C@H]21` [SIMVASTATIN], the IC50 [6] is reported as 21.5 µM (inactive), the IC50 [7] is reported as > 20 µM (inactive) and the IC50 [8] is reported as 4.94 µM (active). For the same molecule, the IC50 [9] was 4.73 µM (active), the IC50 [10] was > 10 µM (inactive) and the IC50 [11] was > 10 µM (inactive). The IC50 [12] was 1.16 µM (active), the IC50 [13] was > 20 µM (inactive) and the IC50 [14] was 3.29 µM (active). For the same molecule, the IC50 [15] was > 20 µM (inactive), the IC50 [16] was > 20 µM (inactive) and the IC50 [17] was > 20 µM (inactive).

With `Cc1nn(-c2ccc(Cl)cc2)c(=O)c2ccccc12` the EC50 (cells) was > 67.5 µM (inactive) and the EC50 [18] was > 67.5 µM (inactive).

For `[H]/C=C\c1c(C)c2cc3nc(cc4[nH]c(cc5nc(cc1[nH]2)C(C)=C5CCC(=O)O)c(CCC(=O)OC)c4C)[C@@]1(C)C3=CC=C(C(=O)OC)[C@@H]1C(=O)OC`, the IC50 [7] was 5.85 µM (inactive), the IC50 [8] was 9.62 µM (inactive) and the IC50 [19] was > 6.67 µM (inactive). For the same molecule, the IC50 [9] was 4.26 µM (active), the IC50 [15] was 5.65 µM (inactive) and the IC50 [16] was 3.53 µM (active). The IC50 [17] was 3.94 µM (active).

With `CC(C)NCC(O)COc1ccc(CCOCC2CC2)cc1` (stereo not given) [BETAXOLOL] the IC50 [7] was > 20 µM (inactive), the IC50 [8] was 6.17 µM (inactive) and the IC50 [19] was > 20 µM (inactive). For the same molecule, the IC50 [13] was > 20 µM (inactive), the IC50 [15] was > 20 µM (inactive) and the IC50 [16] was > 20 µM (inactive). For the same molecule, the IC50 [17] was > 20 µM (inactive).

With `C[C@H](CO)N1C[C@H](C)[C@@H](CN(C)C(=O)Nc2ccc(-c3ccccc3)cc2)OCc2ccccc2-c2c(n(C)c3ccccc23)C1=O` the AC50 [20] was 1.41 µM (active), the AC50 [21] was 0.544 µM (active) and the AC50 [22] was 0.684 µM (active). For the same molecule, the AC50 [23] was 0.577 µM (active).

For `COCC(=O)Nc1ccc2c(c1)C(=O)N(C)[C@@H]1CC[C@@H](CC(=O)OC)O[C@@H]1CO2`, the AC50 [24] was < 0.195 µM (active).

— ChEMBL document CHEMBL1201862, “PubChem BioAssay data set” (2004)
